Like-named read-outs stand apart in the source and are kept apart here.
Experiments:
[1] = molecular target: T1, activated human blood coagulation factor X (Homo sapiens, UniProt P00742); experiment: Determination of activity of inhibiting the activated blood coagulation factor X; assay type: biochemical; settings: same manner as Example 93, read-out: Activity of inhibiting activated blood coagulation factor X (pIC50) (converted)
T1 construct: purchased Enzyme Research Co
Protocol: 130 μl of 100 mM Tris-HCl buffer adjusted to pH 8.4 was added to 10 μl of an aqueous solution of a compound to be tested. Then 10 μl of a 0.5 unit/ml solution of activated human blood coagulation factor X (a product of Enzyme Research Co.) in Tris-HCl buffer hydrochloride of pH 8.4 was added to the resultant mixture. After the incubation at room temperature for 10 minutes, 50 μl of a solution of N-benzoyl-L-isoleucyl-L-glutamyl-glycyl-L-arginyl-p-nitroanilide hydrochloride (a product of Peptide Institute, Inc.) adjusted to 0.8 mM with Tris-HCl buffer (pH 8.4) was added thereto. The absorbance was determined and then the initial reaction rate was determined. A control was prepared in the same manner as that described above except that the solution of the compound to be tested was replaced with 10 μl of Tris-HCl buffer adjusted to pH 8.4.

human thrombin = molecular target: T2, human thrombin (Homo sapiens, UniProt P00734); experiment: Determination of thrombin-inhibiting activity; assay type: biochemical; settings: same manner as Example 94
T2 construct: human thrombin (a product of SIGMA Co.); purchased SIGMA Co
Protocol: 130 μl of 100 mM Tris-HCl buffer adjusted to pH 8.4 was added to 10 μl of an aqueous solution of a test compound. Then 10 μl of a solution of human thrombin (a product of SIGMA Co.) adjusted to 2 units/ml with Tris-HCl buffer of pH 8.4 was added to the resultant mixture. […] The absorbance was determined and then the initial reaction rate was determined. A control was prepared in the same manner as that described above except that the solution of the compound to be tested was replaced with 10 μl of tris hydrochloride buffer adjusted to pH 8.4.

blood plasma = experiment: Determination of blood anticoagulating activity by prothrombin time (PT); assay type: biochemical, human; design: key: -log of concentration doubling control PT
Protocol: The blood anticoagulating activity was determined by a prothrombin time (PT) determination method. The PT was determined as follows: The blood was taken from healthy people. […] The blood plasma was separated by the centrifugation. 5 μl of DMSO solution containing a test compound was added to 45 μl of the blood plasma. After the incubation at room temperature for 2 minutes, a test tube containing the blood plasma solution was placed in Sysmex CA-3000 fully automatic blood coagulation determination device (a product of Toa Medical Electronics Co., Ltd), and incubated at 37° C. for 3 minutes. […] PT was automatically determined with the device. A sample containing 5 μl of DMSO in place of the solution of the test compound was used as the control. The negative logarithm (PT2) of the concentration of the test compound which elongated PT of the control to the twice as long was determined, and employed as the index of the blood anticoagulating activity.

[2] = Table 2, read-out: Thrombin-inhibiting activity (pIC50) (converted)
[3] = Table 2, negative logarithm of concentration that elongated PT of the control to twice as long, plasma of healthy people
[4] = Table 3, read-out: Thrombin inhibiting activity (pIC50) (converted)
[5] = Table 3, same manner as Example 184, negative logarithm of concentration doubling PT

T1 sequence (P00742 235-488 limits assumed): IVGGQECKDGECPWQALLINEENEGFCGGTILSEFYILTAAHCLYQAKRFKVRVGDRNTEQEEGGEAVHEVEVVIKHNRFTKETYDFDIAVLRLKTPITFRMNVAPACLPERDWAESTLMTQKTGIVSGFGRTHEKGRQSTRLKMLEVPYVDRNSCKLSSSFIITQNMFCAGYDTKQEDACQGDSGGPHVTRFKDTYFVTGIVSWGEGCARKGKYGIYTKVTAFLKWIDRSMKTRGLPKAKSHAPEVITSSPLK
T1 sequence (P00742 41-179 partner limits assumed): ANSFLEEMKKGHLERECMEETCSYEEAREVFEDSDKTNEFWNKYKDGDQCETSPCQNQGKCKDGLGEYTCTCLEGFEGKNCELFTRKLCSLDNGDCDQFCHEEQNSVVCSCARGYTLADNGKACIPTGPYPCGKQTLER

SMILES | IC50 ([1]; Table 2) | IC50 (human thrombin; [2]) | Blood anticoagulating activity (PT2) (blood plasma; [3]) | IC50 ([1]; Table 3) | IC50 (human thrombin; [4]) | Blood anticoagulating activity (PT2) (blood plasma; [5])
CC(=N)N1CCC(Oc2ccc(C[C@@H](COc3cccc(C(=N)N)c3)NS(=O)(=O)c3ccc(/C=C/C(=O)O)cc3)cc2)CC1.O=C(O)C(F)(F)F.O=C(O)C(F)(F)F [Compound of Ex. 171, (2E)-3-[4-[(2S)-1-[4-(1-acetimidoyl-4-piperidyloxy)phenyl]-3-(3-amidinophenoxy)-2-propylsulfamoyl]phenyl]acrylic acid bistrifluoroacetate] | 0.1 µM | 39.8 µM | 6 | – | – | –
N=C(N)c1ccc(C(=O)N[C@@H](COc2cc(C(=N)N)ccc2CC(=O)C(=O)O)CC(=O)O)cc1.O=C(O)C(F)(F)F.O=C(O)C(F)(F)F [Compound of Ex. 186, (3R)-3-(4-amidinobenzoylamino)-4-[5-amidino-2-(2-carboxy-2-oxoethyl)phenoxy]butanoic acid bistrifluoroacetate] | – | – | – | 0.02 µM | 251 µM | 5.9
N=C(N)c1cccc(OC[C@H](Cc2ccc(OC3CCNCC3)cc2)NS(=O)(=O)c2ccc(C(=O)O)cc2)c1.O=C(O)C(F)(F)F.O=C(O)C(F)(F)F [Compound of Ex. 167, 4-[(2S)-1-[4-(4-piperidyloxy)phenyl]-3-(3-amidinophenoxy)-2-propylsulfamoyl]benzoic acid bistrifluoroacetate] | 0.501 µM | 126 µM | 5 | – | – | –
N=C(N)c1ccc(C(=O)NCCCOc2cccc(C(=N)N)c2)cc1.O=C(O)C(F)(F)F.O=C(O)C(F)(F)F [Compound of Ex. 122, N-[3-(3-amidinophenoxy)propyl]-4-amidinobenzamide bistrifluoroacetate] | 0.501 µM | > 1000 µM | 4.5 | – | – | –
CN(C)C(=O)c1ccc(C(=O)N[C@@H](COc2cc(C(=N)N)ccc2CC(=O)C(=O)O)CC(=O)O)cc1.O=C(O)C(F)(F)F [Compound of Ex. 188, (3R)-4-[5-amidino-2-(2-carboxy-2-oxoethyl)phenoxy]-3-(4-dimethylcarbamoylbenzoylamino)butanoic acid trifluoroacetate] | – | – | – | 0.00794 µM | 398 µM | 5.7
CC(=N)N1CCC(Oc2ccc(C[C@H](NS(=O)(=O)c3ccccc3)C(=O)Nc3cccc(C(=N)N)c3)cc2)CC1.O=C(O)C(F)(F)F.O=C(O)C(F)(F)F [Compound of Ex. 178, (2S)—N-(3-amidinophenyl)-2-(benzenesulfonylamino)-3-[4-(1-acetimidoyl-4-piperidyloxy)phenyl]propionamide bistrifluoroacetate] | 0.501 µM | > 398 µM | 5.7 | – | – | –
CC(=N)N1CCC(Oc2ccc(C[C@@H](CCc3cccc(C(=N)N)c3)NS(=O)(=O)c3ccccc3)cc2)CC1.O=C(O)C(F)(F)F.O=C(O)C(F)(F)F [Compound of Ex. 175, 3-[(3R)-3-(benzenesulfonylamino)-4-[4-(1-acetimidoyl-4-piperidyloxy)phenyl]butyl]benzamidine bistrifluoroacetate] | 0.251 µM | 63.1 µM | 5.9 | – | – | –
CC(=N)N1CCC(Oc2ccc(C[C@@H](COc3cccc(C(=N)N)c3)NS(=O)(=O)c3ccccc3)cc2)CC1.O=C(O)C(F)(F)F.O=C(O)C(F)(F)F [Compound of Ex. 158, 3-[(2S)-2-(benzenesulfonylamino)-3-[4-(1-acetimidoyl-4-piperidyloxy)phenyl]propoxy]benzamidine bistrifluoroacetate] | 0.158 µM | 50.1 µM | 6.2 | – | – | –

From patent publication US7396844B1, “Benzamidine derivatives” (Ajinomoto Co., Inc., priority 1997, dated 2008)
